According to US20140163096A1, “METHODS AND COMPOSITIONS FOR TREATING HIV-ASSOCIATED DIARRHEA” (priority 2012, published 2014):

Key:
mice = assay: 13-week oral toxicity study in mice; settings: mouse, in vivo
Experimental: One additional group of 15 animals/sex served as the control and received the vehicle, purified water.
Observations for morbidity, mortality, injury, and the availability of food and water were conducted twice daily for all animals. Detailed clinical observations for clinical signs were conducted weekly on all main study animals. Body weights were measured and recorded weekly on all animals. Food consumption was measured and recorded weekly on all main study animals. Ophthalmoscopic examinations were conducted pretest and prior to necropsy for all main study animals. Blood samples for clinical pathology evaluations were collected from main study animals in extremis and at termination. […] Beginning on Day 7, a limited gross necropsy examination was performed on any TK animal euthanized in extremis or found dead in an effort to determine the cause of death.

HIV-positive patients = settings: human, in vivo
rat bone marrow = settings: in vivo
[1] = human, in vivo; cited from earlier work
[2] = Bacterial reverse mutation assay

Crofelemer
clinical pathology, organ weight, and macroscopic effects (mice): observed in both sexes at 1200 mg/kg/day | food consumption effects (mice): evident at 40 mg/kg/day in females and ≧400 mg/kg/day in both sexes | adverse events reported in greater than or equal to 1% and less than 2% of patients, at a higher incidence than placebo (HIV-positive patients): dizziness, muscle spasms, myalgia, and pain in extremity | adverse reactions in patients who received doses greater than 250 mg daily (HIV-positive patients): similar | safety profile by baseline CD4 cell count (HIV-positive patients): similar | rat bone marrow micronucleus assay result (rat bone marrow): negative | systemic bioavailability [1]: virtually no systemic bioavailability | bacterial reverse mutation assay result [2]: negative
